Results taken from ChEMBL document CHEMBL5528035, “Design, Synthesis, and Biological Evaluation for First GPX4 and CDK Dual Inhibitors” (J Med Chem, 2024).
Activity calls are given as the source filed them. No cut-off for these calls is given here.

How the values were obtained:
[1] = tested on: HCT-116; test: cells; conditions: Homo sapiens, HCT-116, 48 h
Description: Antiproliferative activity against human HCT-116 cells assessed as inhibition of cell growth incubated for 48 hrs by CCK-8 assay

[2] = Half life in Sprague-Dawley rat at 10 mg/kg,iv administration measured upto 24 hrs by LC-MS/MS analysis; assay type: ADME, organism-based; conditions: in vivo
[3] = tested on: MDA-MB-231; test: Antitumor activity against human MDA-MB-231 cells xenografted in BALB/c mouse assessed as tumor growth inhibition at 40 mg/kg,ip administrated for 21 consecutive days; assay type: functional; conditions: read-out: TGI
[4] = MRT (0 to t) in Sprague-Dawley rat at 10 mg/kg,iv administration measured upto 24 hrs by LC-MS/MS analysis; assay type: ADME, organism-based; conditions: in vivo
[5] = Clearance in Sprague-Dawley rat at 10 mg/kg,iv administration measured upto 24 hrs by LC-MS/MS analysis; assay type: ADME, organism-based; conditions: in vivo
[6] = AUC (0 to t) in Sprague-Dawley rat at 10 mg/kg,iv administration measured upto 24 hrs by LC-MS/MS analysis; assay type: ADME, organism-based; conditions: in vivo
[7] = Intrinsic clearance in human liver microsomes in presence of NADPH incubated for 5 to 45 mins by LC/MS analysis; assay type: ADME, Microsome; conditions: time 5-45 min, read-out: CLH
[8] = Tmax in Sprague-Dawley rat at 10 mg/kg,iv administration measured upto 24 hrs by LC-MS/MS analysis; assay type: ADME, organism-based; conditions: in vivo
[9] = Cmax in Sprague-Dawley rat at 10 mg/kg,iv administration measured upto 24 hrs by LC-MS/MS analysis; assay type: ADME, organism-based; conditions: in vivo
[10] = Half life in human liver microsomes in presence of NADPH incubated for 5 to 45 mins by LC/MS analysis; assay type: ADME, Microsome; conditions: time 5-45 min
[11] = tested on: A549; test: cells; conditions: Homo sapiens, A549, 48 h
Description: Antiproliferative activity against human A549 cells assessed as inhibition of cell growth incubated for 48 hrs by CCK-8 assay

[12] = tested on: MDA-MB-231; test: cells; conditions: Homo sapiens, MDA-MB-231, 48 h
Description: Antiproliferative activity against human MDA-MB-231 cells assessed as inhibition of cell growth incubated for 48 hrs by CCK-8 assay

[13] = tested on: HepG2; test: cells; conditions: Homo sapiens, HepG2, 48 h
Description: Antiproliferative activity against human HepG2 cells assessed as inhibition of cell growth incubated for 48 hrs by CCK-8 assay

[14] = tested on: MDA-MB-231; test: Induction of cell cycle arrest in human MDA-MB-231 cells assessed as accumulation of cells at G1 phase at 10 uM incubated for 24 hrs by RNase/PI staining based flow cytometric analysis; assay type: functional
[15] = tested on: MDA-MB-231; test: Induction of cell cycle arrest in human MDA-MB-231 cells assessed as accumulation of cells at G2 phase at 10 uM incubated for 24 hrs by RNase/PI staining based flow cytometric analysis; assay type: functional
[16] = tested on: HCT-116; test: Induction of cell cycle arrest in human HCT-116 cells assessed as accumulation of cells at G2 phase at 10 uM incubated for 24 hrs by RNase/PI staining based flow cytometric analysis; assay type: functional
[17] = tested on: HCT-116; test: Induction of cell cycle arrest in human HCT-116 cells assessed as accumulation of cells at G1 phase at 10 uM incubated for 24 hrs by RNase/PI staining based flow cytometric analysis; assay type: functional
[18] = biological target: CDK2/Cyclin A2 (Homo sapiens) (UniProt P24941+P20248); test: Inhibition of CDK2/CyclinA2 (unknown origin) at 100 nM preincubated for 15 mins followed by substrate and ATP addition incubated for 10 mins by ADP-glo luminescent assay relative to control; assay type: protein-complex assay; conditions: time 25.0 min
[19] = biological target: CDK6/cyclin D3 (Homo sapiens) (UniProt P30281+Q00534); test: Inhibition of CDK6/CyclinD3 (unknown origin) at 100 nM preincubated for 15 mins followed by substrate and ATP addition incubated for 10 mins by ADP-glo luminescent assay relative to control; assay type: protein-complex assay; conditions: time 25.0 min

Row | IC50 [1] [µM] | half-life [2] [h] | MRT last at 24 h [4] [h] | clearance [5] [L/h/kg] | AUC(0-t) at 24 h [6] [µg·h/mL] | CLint scaled [7] [L/h/kg] | Tmax [8] [h] | Cmax [9] [µg/mL] | half-life [10] [h] | IC50 [11] [µM] | IC50 [12] [µM] | IC50 [13] [µM] | inhibition [18] [%] | inhibition [19] [%] | Compound | inhibition in vivo at 40 mg/kg [3] [%] | Activity [14] | Activity [15] | Activity [16] | Activity [17]
1 | 4.14 | 1.7 | 1.8 | 1.25 | 8.02 | 161 | 0.8 | 8.53 | 0.01 | 2.09 | 2.27 | 3.71 |  |  | COc1ccc(N(C(=O)CCl)C(C(=O)NCCc2ccccc2)c2cccs2)cc1Cl (stereo not drawn) | 60.9 |  |  |  | 
2 | 4.22 | 3.8 | 2.7 | 0.768 | 12.9 | 3.31 | 0.8 | 8.73 | 0.483 | 4.04 | 5.16 | 5.66 | 40.3 | 51.1 | O=C1Nc2ccccc2/C1=C1/Nc2ccccc2/C1=N\O | 59.4 | Active | Active | Active | Active
3 | > 10 |  |  |  |  |  |  |  |  | > 10 | 8.69 | > 10 | 22.4 | 28.3 | O=C(CCn1cc(COc2ccc(N(C(=O)CCl)C(C(=O)NCCc3ccccc3)c3cccs3)cc2Cl)nn1)NCCCO/N=C1/C(=C2/C(=O)Nc3cc(Br)ccc32)Nc2ccccc21 (stereo not drawn) |  |  |  |  | 
